Values quoted from earlier work as cited in paper PMC6272651, “Novel Orally Active Analgesic and Anti-Inflammatory Cyclohexyl-N-Acylhydrazone Derivatives” (Molecules, 2015).

Target: T1, adenosine receptor, subtype A2A (Rattus norvegicus, UniProt P30543)
T1 construct: gene Adora2a
Test: radioligand displacement of [3H]CGS21680 ([…]) from rat A2A receptors
Conditions: read-out: Binding A2a / % of inhibition ^a

T1 sequence (P30543 whole entry): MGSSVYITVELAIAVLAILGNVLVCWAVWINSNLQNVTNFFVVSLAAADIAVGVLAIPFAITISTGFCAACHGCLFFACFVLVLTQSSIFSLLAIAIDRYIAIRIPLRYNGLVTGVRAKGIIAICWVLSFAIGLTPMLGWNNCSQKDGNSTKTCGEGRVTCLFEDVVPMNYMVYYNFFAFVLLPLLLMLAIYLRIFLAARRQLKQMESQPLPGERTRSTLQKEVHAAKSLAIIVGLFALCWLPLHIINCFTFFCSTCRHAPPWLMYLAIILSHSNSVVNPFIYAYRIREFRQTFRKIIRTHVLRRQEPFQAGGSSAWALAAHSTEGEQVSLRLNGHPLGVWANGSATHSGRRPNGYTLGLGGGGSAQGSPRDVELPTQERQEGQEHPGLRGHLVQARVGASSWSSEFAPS

Question: With O=C(N/N=C/c1cccs1)c1ccc2c(c1)OCO2 [compound 8, (E)-N'-((thiophen-2-yl)methylene)benzo[d][1,3]dioxole-5-carbohydrazide] as the compound, how does the Ki read?
Answer: Its Ki is 8.2 µM.
